Values quoted from earlier work, collected in patent US9452976B2, “Pactamycin analogs and methods of making thereof” (Oregon State University, priority 2007, dated 2016).

Key:
[1] = system: Gram-positive and Gram-negative bacteria
[2] = reason clinical application was abandoned

Q: Which “activity against a number of Gram-positive and Gram-negative bacteria, compared with pactamycin” value ([1]; relative to pactamycin) does the source give for `CC[C@]1(NC(=O)N(C)C)[C@@H](N)[C@H](Nc2cccc(C(C)=O)c2)[C@](O)(COC(=O)c2c(C)cccc2O)[C@]1(C)O` [7-Deoxypactamycin, 7-deoxypactamycin] here?
A: Its value is “equally active”.

Q: Which results are given for `CC(=O)c1cccc(N[C@H]2[C@H](N)[C@@](NC(=O)N(C)C)([C@H](C)O)[C@@](C)(O)[C@@]2(O)COC(=O)c2c(C)cccc2O)c1` [Pactamycin, pactamycin]?
A: anti-tumor activity (tumor): strong anti-tumor activity; antibacterial activities against Gram-positive and Gram-negative bacteria ([1]; Bhuyan, Appl. Microbiol. 1962): potent antibacterial activities; toxicity [2]: high toxicity

Q: Which “bioactivity of the cyclic derivative formed by attack of C-7 hydroxyl on the carbamoyl carbonyl” value [1] does the source give for `CC(=O)c1cccc(N[C@H]2[C@H](N)[C@]3(NC(=O)O[C@H]3C)[C@@](C)(O)[C@@]2(O)COC(=O)c2c(C)cccc2O)c1` [pactamycate] here?
A: The value was “inactive”.
